According to the supplement of paper PMC10307832:

Assays:
Test in all cases: relative viability (nuclei count vs DMSO), 5 days (fraction); higher = more cells survive
[1] = compound: C[C@]12O[C@H](C[C@]1(O)CO)n1c3ccccc3c3c4c(c5c6ccccc6n2c5c31)CNC4=O [Lestaurtinib] + COc1cccc2cc(-c3nc([C@H]4CC[C@H](C(=O)O)CC4)n4ncnc(N)c34)[nH]c12 [OSI-027] (partner 0.5 µM)
In short: (§1)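 Relative viability divides the nuclei count in treated wells by that in vehicle wells. Lung cancer cell lines were seeded in 1536-well plates, dosed by pin tool the next day, and fixed and stained after 5 days in one step with final 0.05% Triton X-100, 1% formaldehyde and 1 ug/ml Hoechst. Dosing was a single drug or a fixed anchor-drug dose plus five library-drug doses (not always all listed) in √10 steps, and values are medians of duplicate plates imaged at 4×.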

[2] = compound: C[C@]12O[C@H](C[C@]1(O)CO)n1c3ccccc3c3c4c(c5c6ccccc6n2c5c31)CNC4=O [Lestaurtinib] + Nc1nc2[nH]cc(CCc3ccc(C(=O)N[C@@H](CCC(=O)O)C(=O)O)cc3)c2c(=O)[nH]1 [Pemetrexed] (partner 0.2 µM)
In short: as §1

[3] = compound: C[C@]12O[C@H](C[C@]1(O)CO)n1c3ccccc3c3c4c(c5c6ccccc6n2c5c31)CNC4=O [Lestaurtinib] + NC(=O)Nc1cc(-c2cccc(F)c2)sc1C(=O)N[C@H]1CCCNC1 [AZD7762] (partner 0.2 µM)
In short: as §1

[4] = compound: C1=CC(=CC=C1C2=CC(=C(S2)NC(=O)N)C(=O)N)F [TPCA-1] + C[C@]1(O)C[C@@H](c2nc(-c3ccc4ccc(-c5ccccc5)nc4c3)c3c(N)nccn32)C1 [Linsitinib] (partner 1 µM)
In short: as §1

| Cell Line | relative viability ([1]; first compound 0.005 µM) | relative viability ([1]; first compound 0.01581 µM) | relative viability ([1]; first compound 0.05 µM) | relative viability ([1]; first compound 0.1581 µM) | relative viability ([1]; first compound 0.5 µM) | relative viability ([2]; first compound 0.005 µM) | relative viability ([2]; first compound 0.01581 µM) | relative viability ([2]; first compound 0.05 µM) | relative viability ([2]; first compound 0.1581 µM) | relative viability ([2]; first compound 0.5 µM) | relative viability ([3]; first compound 0.005 µM) | relative viability ([3]; first compound 0.01581 µM) | relative viability ([3]; first compound 0.05 µM) | relative viability ([3]; first compound 0.1581 µM) | relative viability ([3]; first compound 0.5 µM) | relative viability ([4]; first compound 0.04 µM) | relative viability ([4]; first compound 0.1265 µM) | relative viability ([4]; first compound 0.4 µM) | relative viability ([4]; first compound 1.265 µM) | relative viability ([4]; first compound 4 µM) |
| --- | --- | --- | --- | --- | --- | --- | --- | --- | --- | --- | --- | --- | --- | --- | --- | --- | --- | --- | --- | --- |
| SW 900 | 0.561 | 0.702 | 0.623 | 0.522 | 0.527 | 0.517 | 0.538 | 0.487 | 0.532 | 0.441 | 0.632 | 0.561 | 0.555 | 0.702 | 0.614 |  |  |  |  |  |
| NCI-H1944 | 0.483 | 0.406 | 0.322 | 0.31 | 0.292 | 0.663 | 0.595 | 0.492 | 0.409 | 0.25 | 0.609 | 0.514 | 0.623 | 0.487 | 0.228 | 1.24 | 1.13 | 1.2 | 1.13 | 0.987 |
| NCI-H727 | 0.614 | 0.675 | 0.525 | 0.698 | 0.498 |  |  |  |  |  | 0.564 | 0.633 | 0.522 |  | 0.452 | 0.203 | 0.318 | 0.342 | 0.223 | 0.244 |
| NCI-H1650 | 0.642 | 0.829 | 0.594 | 0.652 | 0.357 | 0.472 | 0.367 | 0.383 | 0.319 | 0.322 |  |  |  |  |  |  |  |  |  |  |
| HCC-827 | 0.781 | 0.727 | 0.459 | 0.626 | 0.659 | 0.234 | 0.234 | 0.26 | 0.28 | 0.196 | 0.198 | 0.196 | 0.219 | 0.189 | 0.18 | 0.934 | 0.889 | 0.935 | 0.932 | 0.806 |
| HCC-366 | 1.03 | 1.03 | 0.827 | 0.353 | 0.198 | 0.158 | 0.168 | 0.157 | 0.163 | 0.104 | 0.315 | 0.305 | 0.339 | 0.447 | 0.556 | 0.72 | 0.568 | 0.807 | 0.458 | 0.427 |
| HARA | 0.629 | 0.469 | 0.324 | 0.278 | 0.104 | 0.265 | 0.246 | 0.203 | 0.171 | 0.196 | 0.287 | 0.392 | 0.282 | 0.294 | 0.307 | 0.916 | 0.856 | 1.05 | 0.924 | 0.804 |
| NCI-H322M | 0.561 | 0.525 | 0.427 | 0.498 | 0.372 | 0.599 | 0.606 |  | 0.592 | 0.445 | 0.511 | 0.538 |  | 0.517 | 0.479 | 1.02 | 0.834 | 0.952 | 0.803 | 0.607 |
| LXF-289 | 0.805 | 0.677 | 0.491 | 0.536 | 0.391 | 0.872 | 0.931 | 0.631 | 0.771 | 0.21 | 1.12 | 1.14 | 0.801 | 0.864 | 0.17 | 0.94 | 0.969 | 0.932 | 0.962 | 0.793 |
| PC-3 [JPC-3] | 0.809 | 0.803 | 0.662 | 0.65 | 0.439 | 0.747 | 1.5 | 0.918 | 0.94 | 0.613 | 0.759 | 1.04 | 0.688 | 0.586 | 0.485 | 0.968 | 0.875 | 0.946 | 0.9 | 0.937 |
| CAL-12T | 0.699 | 0.698 | 0.515 | 0.36 | 0.278 | 1.13 | 1.11 | 1.17 | 0.834 | 0.635 | 0.573 | 0.813 | 0.557 | 0.599 | 0.54 | 0.868 | 0.754 | 0.73 | 0.763 | 0.411 |
| COR-L 105 | 0.616 | 0.696 | 0.565 | 0.441 | 0.23 | 1.06 | 1.19 | 1.14 | 0.743 | 0.631 |  |  |  |  |  | 0.959 | 1.03 | 0.801 | 0.862 | 0.781 |
| NCI-H2347 | 0.402 | 0.423 | 0.409 | 0.33 | 0.367 | 0.443 | 0.43 | 0.432 | 0.44 | 0.404 | 0.7 | 0.83 | 0.648 | 0.568 | 0.466 | 1.14 | 1.02 | 0.899 | 0.931 | 0.903 |
| NCI-H2126 | 0.6 | 0.844 | 0.665 | 0.658 | 0.539 | 0.757 | 0.685 | 0.66 | 0.666 | 0.476 | 1.04 | 1.01 | 0.877 | 0.988 | 0.813 | 0.752 | 0.657 | 0.709 | 0.724 | 0.595 |
| NCI-H838 | 0.399 | 0.441 | 0.397 | 0.446 | 0.228 | 0.263 | 0.272 | 0.231 | 0.197 | 0.126 | 1.01 | 0.951 | 0.933 | 0.873 | 0.681 | 1.06 | 0.868 | 0.962 | 0.886 | 0.811 |
| A549 |  |  |  |  |  |  |  |  |  |  |  |  |  |  |  | 0.627 | 0.567 | 0.638 | 0.469 | 0.314 |
| NCI-H2342 | 0.571 | 0.672 | 0.547 | 0.648 | 0.549 | 0.74 | 0.773 | 0.796 | 0.858 | 0.6 | 0.473 | 0.51 | 0.469 | 0.583 | 0.407 |  |  |  |  |  |
| NCI-H1623 | 0.4 | 0.412 | 0.428 | 0.399 | 0.398 |  |  |  |  |  |  |  |  |  |  |  |  |  |  |  |
| SK-LU-1 | 0.296 | 0.255 | 0.211 | 0.295 | 0.181 | 1 | 0.802 | 0.476 | 0.457 | 0.284 |  |  |  |  |  | 1.19 | 1.07 | 1.11 | 0.681 | 0.425 |
